Results as given in BindingDB's records for PubMed 11306677 (Upr 9023, 2001).
Several values for one entry are separate records, joined by “and”; a condition that tells them apart may be missing. Equal entries are not always repeated.

Assays:
[1] = target: Metabotropic glutamate receptor 5 (Rattus norvegicus, UniProt P31424)
[2] = target: Metabotropic glutamate receptor 2 (Homo sapiens, UniProt Q14416)
[3] = target: Metabotropic glutamate receptor 1 (Rattus norvegicus, UniProt P23385)
Chain of Metabotropic glutamate receptor 1 (P23385 whole entry): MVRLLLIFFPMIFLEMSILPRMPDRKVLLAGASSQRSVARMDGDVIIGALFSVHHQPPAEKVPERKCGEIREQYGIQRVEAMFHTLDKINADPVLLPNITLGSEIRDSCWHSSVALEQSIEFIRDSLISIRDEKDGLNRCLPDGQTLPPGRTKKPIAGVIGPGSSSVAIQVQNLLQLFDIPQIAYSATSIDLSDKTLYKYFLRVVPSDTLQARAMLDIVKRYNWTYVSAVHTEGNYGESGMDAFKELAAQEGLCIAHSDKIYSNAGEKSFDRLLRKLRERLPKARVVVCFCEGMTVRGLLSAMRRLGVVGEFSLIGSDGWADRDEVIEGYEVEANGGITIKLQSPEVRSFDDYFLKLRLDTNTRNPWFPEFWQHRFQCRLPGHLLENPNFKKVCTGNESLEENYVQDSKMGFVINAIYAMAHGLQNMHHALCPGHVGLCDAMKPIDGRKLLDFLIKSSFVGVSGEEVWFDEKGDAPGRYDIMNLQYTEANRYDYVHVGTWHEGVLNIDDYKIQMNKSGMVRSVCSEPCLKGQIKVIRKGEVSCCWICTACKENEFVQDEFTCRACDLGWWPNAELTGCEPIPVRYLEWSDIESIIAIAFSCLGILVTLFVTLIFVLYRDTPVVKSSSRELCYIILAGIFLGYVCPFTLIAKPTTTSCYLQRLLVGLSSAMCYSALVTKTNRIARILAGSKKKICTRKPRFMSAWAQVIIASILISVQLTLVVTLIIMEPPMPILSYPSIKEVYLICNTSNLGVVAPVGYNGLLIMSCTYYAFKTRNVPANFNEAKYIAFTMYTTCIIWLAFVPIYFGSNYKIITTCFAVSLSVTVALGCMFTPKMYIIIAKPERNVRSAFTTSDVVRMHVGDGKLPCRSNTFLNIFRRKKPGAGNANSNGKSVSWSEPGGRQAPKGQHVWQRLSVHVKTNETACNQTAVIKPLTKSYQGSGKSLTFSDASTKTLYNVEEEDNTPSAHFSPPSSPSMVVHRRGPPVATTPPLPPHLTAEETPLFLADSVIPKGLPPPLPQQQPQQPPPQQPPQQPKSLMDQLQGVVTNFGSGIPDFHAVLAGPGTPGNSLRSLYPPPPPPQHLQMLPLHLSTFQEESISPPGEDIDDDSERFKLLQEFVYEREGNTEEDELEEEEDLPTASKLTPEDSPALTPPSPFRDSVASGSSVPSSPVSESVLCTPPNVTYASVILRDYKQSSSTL

Chain of Metabotropic glutamate receptor 5 (P31424 whole entry): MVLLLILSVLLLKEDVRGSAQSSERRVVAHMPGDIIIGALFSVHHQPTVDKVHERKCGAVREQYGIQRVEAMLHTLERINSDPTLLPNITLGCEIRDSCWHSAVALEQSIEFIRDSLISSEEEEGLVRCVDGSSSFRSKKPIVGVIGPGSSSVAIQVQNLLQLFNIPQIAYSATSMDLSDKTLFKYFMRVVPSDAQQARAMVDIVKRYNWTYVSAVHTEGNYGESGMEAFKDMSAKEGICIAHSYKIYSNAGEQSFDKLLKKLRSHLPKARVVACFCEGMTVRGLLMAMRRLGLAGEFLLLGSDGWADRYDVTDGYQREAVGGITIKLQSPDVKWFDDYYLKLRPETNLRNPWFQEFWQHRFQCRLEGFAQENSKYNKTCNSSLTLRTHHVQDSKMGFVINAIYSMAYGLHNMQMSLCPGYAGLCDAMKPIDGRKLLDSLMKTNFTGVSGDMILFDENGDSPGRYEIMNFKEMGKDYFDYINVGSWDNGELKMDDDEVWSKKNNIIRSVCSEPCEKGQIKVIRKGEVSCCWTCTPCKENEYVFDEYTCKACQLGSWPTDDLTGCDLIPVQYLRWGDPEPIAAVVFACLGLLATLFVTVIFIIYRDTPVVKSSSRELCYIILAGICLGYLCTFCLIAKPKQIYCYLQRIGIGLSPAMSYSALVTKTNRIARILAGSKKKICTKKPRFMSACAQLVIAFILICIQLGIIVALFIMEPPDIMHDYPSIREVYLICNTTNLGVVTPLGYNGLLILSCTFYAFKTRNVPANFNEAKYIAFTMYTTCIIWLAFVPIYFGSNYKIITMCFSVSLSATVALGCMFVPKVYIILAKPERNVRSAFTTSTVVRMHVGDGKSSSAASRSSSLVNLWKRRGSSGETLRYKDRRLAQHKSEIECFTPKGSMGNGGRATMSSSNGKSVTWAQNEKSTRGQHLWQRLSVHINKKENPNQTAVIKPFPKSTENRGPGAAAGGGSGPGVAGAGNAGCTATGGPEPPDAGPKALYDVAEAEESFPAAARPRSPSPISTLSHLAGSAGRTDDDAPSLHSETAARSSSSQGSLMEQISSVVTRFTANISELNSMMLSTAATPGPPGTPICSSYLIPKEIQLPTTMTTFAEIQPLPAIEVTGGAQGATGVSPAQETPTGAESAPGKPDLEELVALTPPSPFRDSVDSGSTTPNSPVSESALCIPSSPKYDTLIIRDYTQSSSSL
Chain of Metabotropic glutamate receptor 2 (Q14416 whole entry): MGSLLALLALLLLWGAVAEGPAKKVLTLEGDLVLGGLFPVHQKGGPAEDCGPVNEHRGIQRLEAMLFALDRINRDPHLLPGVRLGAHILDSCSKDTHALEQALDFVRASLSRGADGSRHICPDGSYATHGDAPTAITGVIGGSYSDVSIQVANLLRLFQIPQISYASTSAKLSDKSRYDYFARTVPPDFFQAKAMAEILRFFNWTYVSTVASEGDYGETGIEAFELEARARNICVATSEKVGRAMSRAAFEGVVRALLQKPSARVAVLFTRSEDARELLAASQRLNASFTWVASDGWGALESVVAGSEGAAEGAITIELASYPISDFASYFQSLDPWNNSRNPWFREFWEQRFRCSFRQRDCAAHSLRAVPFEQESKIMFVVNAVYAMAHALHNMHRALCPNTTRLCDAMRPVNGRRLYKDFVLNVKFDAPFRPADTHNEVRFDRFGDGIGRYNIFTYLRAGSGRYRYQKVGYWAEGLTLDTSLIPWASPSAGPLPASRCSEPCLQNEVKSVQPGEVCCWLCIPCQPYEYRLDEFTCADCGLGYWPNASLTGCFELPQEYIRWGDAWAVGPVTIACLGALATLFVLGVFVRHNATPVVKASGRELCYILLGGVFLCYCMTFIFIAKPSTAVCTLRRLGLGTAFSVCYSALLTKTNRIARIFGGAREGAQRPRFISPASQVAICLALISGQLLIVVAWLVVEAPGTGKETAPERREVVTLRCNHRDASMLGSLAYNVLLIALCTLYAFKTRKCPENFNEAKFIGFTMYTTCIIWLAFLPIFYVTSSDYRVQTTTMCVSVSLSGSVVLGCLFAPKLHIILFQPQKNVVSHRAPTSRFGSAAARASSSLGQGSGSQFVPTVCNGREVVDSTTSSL

Ki [1]: 240 nM and 500 nM | Ki [2]: 140 nM | Ki [3]: > 10000 nM
SMILES: C=C1C[C@@H]2COC(=O)[C@]2(Cc2ccc3ccccc3c2)C1
